According to ChEMBL document CHEMBL6071165, “Design, synthesis and biological evaluation of plant-derived miliusol derivatives achieve TNBC profound regression in vivo” (Eur J Med Chem, 2024):
Active and inactive are the calls of the source. The calls are words filed in the database; no cut-off is given here.

How the values were obtained:
BT-549 [1] = assay: Induction of apoptosis in human BT-549 cells assessed as late apoptotic cells at 2 uM incubated for 24 hrs by Annexin V-PI staining based flow cytometric analysis (reference value: 2.95%); type: functional
MDA-MB-231 [2] = assay: Antiproliferative activity against human MDA-MB-231 cells xenografted in female BALB/c mouse model assessed as fold change in upregulation of BAX protein level at 5 mg/kg administered subcutaneously incubated for 24 hrs by Western blot analysis (reference value: 1.00%); type: functional; details: route sc
[3] = Toxicity in female BALB/c mouse xenografted with human MDA-MB-231 cells assessed as effect on body weight at 5 to 20 mg/kg, sc and measured daily; type: organism-based; details: in vivo, dose 5-20 mg/kg
BT-549 [4] = assay: Induction of apoptosis in human BT-549 cells assessed as necrotic cells at 0.5 uM incubated for 24 hrs by Annexin V-PI staining based flow cytometric analysis (reference value: 3.32%); type: functional
MDA-MB-231 [5] = assay: Antiproliferative activity against human MDA-MB-231 cells xenografted in female BALB/c mouse model assessed as fold change in upregulation of BIP protein level at 5 mg/kg administered subcutaneously incubated for 24 hrs by Western blot analysis (reference value: 1.00%); type: functional; details: route sc
BT-549 [6] = assay: Downregulation of LDHA expression in human BT-549 cells at 1 uM incubated for 24 hrs by DAPI staining based immunofluorescence analysis; type: functional, cell-based
BT-549 [7] = assay: Induction of apoptosis in human BT-549 cells incubated for 24 hrs by Annexin V-PI staining based flow cytometric analysis; type: functional, cell-based; details: dose 0.5-2 µM
[8] = Toxicity in female BALB/c mouse xenografted with human BT-549 cells assessed as effect on pathological changes in liver at 5 to 20 mg/kg, sc by H and E staining based analysis; type: organism-based; details: in vivo, dose 5-20 mg/kg
MDA-MB-231 [9] = assay: Induction of ER stress in human MDA-MB-231 cells assessed as upregulation of BIP protein level at 1 uM incubated for 24 hrs by DAPI staining based immunofluorescence analysis; type: functional, cell-based
[10] = (§1) Selectivity ratio of IC50 for antiproliferative activity against human MCF-10A cells assessed as inhibition of cell proliferation incubated for 48 hrs by MTT assay to IC50 for antiproliferative activity against human MDA-MB-231 cells assessed as inhibition of cell proliferation incubated for 48 hrs by MTT assay; type: cell-based; details: MCF-10A cells versus MDA-MB-231 cells, read-out: Ratio IC50
BT-549 [11] = assay: Induction of ER stress in human BT-549 cells assessed as activation of Xbp-1s protein level incubated for 24 hrs by Western blot analysis; type: functional, cell-based; details: dose 0.5-2 µM
MDA-MB-231 [12] = assay: Inhibition of cell proliferation in human MDA-MB-231 cells assessed as reduction in Ki-67 expression at 0.5 to 2 uM incubated for 24 hrs by DAPI staining based immunofluorescence analysis; type: functional; details: dose 0.5-2 µM
BT-549 [13] = assay: Downregulation of c-Jun level in human BT-549 cells incubated for 24 hrs by Western blot analysis; type: functional, cell-based; details: dose 0.5-2 µM
MDA-MB-231 [14] = assay: Induction of ER stress in human MDA-MB-231 cells assessed as activation of CHOP protein level incubated for 24 hrs by Western blot analysis; type: functional, cell-based; details: dose 0.5-2 µM
BT-549 [15] = assay: Induction of apoptosis in human BT-549 cells assessed as late apoptotic cells at 0.5 uM incubated for 24 hrs by Annexin V-PI staining based flow cytometric analysis (reference value: 2.95%); type: functional
[16] = Toxicity in female BALB/c mouse xenografted with human BT-549 cells assessed as effect on pathological changes in spleen at 5 to 20 mg/kg, sc by H and E staining based analysis; type: organism-based; details: in vivo, dose 5-20 mg/kg
MDA-MB-231 [17] = assay: Induction of apoptosis in human MDA-MB-231 cells assessed as early apoptotic cells at 2 uM incubated for 24 hrs by Annexin V-PI staining based flow cytometric analysis (reference value: 0.42%); type: functional
BT-549 [18] = assay: Induction of ER stress in human BT-549 cells assessed as increase in calcium ion content at 2 uM incubated for 24 hrs by Fluo-3AM staining based flow cytometric analysis; type: functional, cell-based
MDA-MB-231 [19] = assay: Inhibition of colony formation in human MDA-MB-231 cells incubated for 7 days by Crystal violet staining based analysis; type: functional, cell-based; details: dose 0.5-2 µM, time 7.0 day
MDA-MB-231 [20] = assay: Inhibition of cell migration in human MDA-MB-231 cells assessed as decrease in SNAIL level at 1 uM incubated for 24 hrs by DAPI staining based immunofluorescence analysis; type: functional
MDA-MB-231 [21] = assay: Inhibition of cell migration in human MDA-MB-231 assessed as reduction in wound healing ability at 0 to 2 uM incubated for 48 hrs by Wound healing assay; type: functional, cell-based; details: dose 0-2 µM
MDA-MB-231 [22] = assay: Antiproliferative activity against human MDA-MB-231 cells xenografted in female BALB/c mouse model assessed as fold change in inhibition of PKM2 expression at 5 mg/kg administered subcutaneously incubated for 24 hrs by Western blot analysis (reference value: 1.00%); type: functional; details: route sc
MDA-MB-231 [23] = assay: Antitumor activity against human MDA-MB-231 cells xenografted in female BALB/c mouse model assessed as reduction in tumor weight administered subcutaneously and measured every day; type: functional, cell-based; details: dose 5-20 mg/kg, route sc
BT-549 [24] = assay: Induction of ER stress in human BT-549 cells assessed as activation of BIP protein level incubated for 24 hrs by Western blot analysis; type: functional, cell-based; details: dose 0.5-2 µM
BT-549 [25] = assay: Induction of apoptosis in human BT-549 cells assessed as upregulation of cleavage of caspase-9 expression at 0.5 to 2 uM incubated for 24 hrs by Western blot analysis; type: functional, cell-based; details: dose 0.5-2 µM
[26] = molecular target: Eukaryotic translation initiation factor 3 subunit D (Homo sapiens) (UniProt O15371); assay: Induction of thermal stabilization of EIF3D in human MDA-MB-231 cells at 1 uM by CETSA analysis; type: cell-based
Sequence of Eukaryotic translation initiation factor 3 subunit D (Homo sapiens) (O15371 whole entry): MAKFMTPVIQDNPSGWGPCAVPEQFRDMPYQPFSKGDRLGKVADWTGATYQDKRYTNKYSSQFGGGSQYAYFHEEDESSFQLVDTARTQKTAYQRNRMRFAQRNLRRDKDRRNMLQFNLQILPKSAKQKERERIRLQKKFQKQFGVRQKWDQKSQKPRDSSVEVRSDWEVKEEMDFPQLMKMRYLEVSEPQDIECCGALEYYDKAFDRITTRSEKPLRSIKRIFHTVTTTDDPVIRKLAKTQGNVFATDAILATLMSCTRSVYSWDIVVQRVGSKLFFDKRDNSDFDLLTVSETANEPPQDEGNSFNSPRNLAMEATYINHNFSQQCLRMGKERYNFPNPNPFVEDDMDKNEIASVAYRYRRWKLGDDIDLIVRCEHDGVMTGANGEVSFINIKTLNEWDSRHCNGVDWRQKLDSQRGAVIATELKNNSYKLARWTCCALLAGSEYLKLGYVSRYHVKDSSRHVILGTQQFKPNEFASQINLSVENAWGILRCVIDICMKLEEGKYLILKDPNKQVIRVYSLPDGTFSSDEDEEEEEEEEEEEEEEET

MDA-MB-231 [27] = assay: Antiproliferative activity against human MDA-MB-231 cells xenografted in female BALB/c mouse model assessed as increase in E-cadherin level at 5 to 20 mg/kg administered subcutaneously by immunohistochemical staining based microscopic analysis; type: functional, organism-based; details: dose 5-20 mg/kg, route sc
BT-549 [28] = assay: Antiproliferative activity against human BT-549 cells xenografted in female BALB/c mouse model assessed as fold change in inhibition of PKM2 expression at 20 mg/kg administered subcutaneously incubated for 24 hrs by Western blot analysis (reference value: 1.05%); type: functional; details: route sc
MDA-MB-231 [29] = assay: Induction of apoptosis in human MDA-MB-231 cells assessed as upregulation of cleavage of caspase-9 expression at 0.5 to 2 uM incubated for 24 hrs by Western blot analysis; type: functional, cell-based; details: dose 0.5-2 µM
MDA-MB-231 [30] = assay: Inhibition of cell migration in human MDA-MB-231 cells assessed as decrease in MMP-2 level incubated for 24 hrs by Western blot analysis; type: functional, cell-based; details: dose 0.5-2 µM
BT-549 [31] = assay: Antiproliferative activity against human BT-549 cells xenografted in female BALB/c mouse model assessed as fold change in downregulation of MMP-2 protein level at 20 mg/kg administered subcutaneously incubated for 24 hrs by Western blot analysis (reference value: 1.00%); type: functional; details: route sc
MDA-MB-231 [32] = assay: Antiproliferative activity against human MDA-MB-231 cells xenografted in female BALB/c mouse model assessed as fold change in upregulation of BAX protein level at 20 mg/kg administered subcutaneously incubated for 24 hrs by Western blot analysis (reference value: 1.00%); type: functional; details: route sc
[33] = as §1, with “BT-549” for “MDA-MB-231”; type: toxicity, cell-based; details: MCF-10A cells versus BT-549 cells, read-out: Ratio IC50

## CC(C)=CCC/C(C)=C/[C@H]1OC(=O)CC12C[C@H](OC(=O)Cc1ccc(NC(=O)/C=C/c3ccccc3)cc1)C=CC2=O (stereo partly drawn)
BT-549 [1]
  Activity: 50.1%
MDA-MB-231 [2]
  fold change (FC): 1.05
[3]
  Activity: Non-Toxic
BT-549 [4]
  Activity: 3.73%
MDA-MB-231 [5]
  fold change (FC): 2.18
BT-549 [6]
  Activity: Active
BT-549 [7]
  Activity: Dose-Dependent Effect
[8]
  Activity: Non-Toxic
MDA-MB-231 [9]
  Activity: Active
[10]
  selectivity ratio at 48 h: 36.4
BT-549 [11]
  Activity: Active
MDA-MB-231 [12]
  inhibition: Active
BT-549 [13]
  Activity: Dose-Dependent Effect
MDA-MB-231 [14]
  Activity: Dose-Dependent Effect
BT-549 [15]
  Activity: 3.62%
[16]
  Activity: Non-Toxic
MDA-MB-231 [17]
  Activity: 2.23%
BT-549 [18]
  Activity: Active
MDA-MB-231 [19]
  inhibition: Dose-Dependent Effect
MDA-MB-231 [20]
  inhibition: Active
MDA-MB-231 [21]
  inhibition: Active
MDA-MB-231 [22]
  fold change (FC): 0.81
MDA-MB-231 [23]
  Activity: Dose-Dependent Effect
BT-549 [24]
  Activity: Dose-Dependent Effect
BT-549 [25]
  Activity: Active
[26]
  Activity: Active
MDA-MB-231 [27]
  Activity: Active
BT-549 [28]
  fold change (FC): 0.16
MDA-MB-231 [29]
  Activity: Active
MDA-MB-231 [30]
  inhibition: Dose-Dependent Effect
BT-549 [31]
  fold change (FC): 0.17
MDA-MB-231 [32]
  fold change (FC): 1.82
[33]
  selectivity ratio at 48 h: 72.7
